From US6455242B1, “Color photographic element containing speed improving compound” (Eastman Kodak Company, priority 1998, dated 2002)

Assay: Permanent solvent physical constant beta
Format: physicochemical
Details: permanent solvent constant as defined by Kamlet et al.
From the text: The materials of the invention can be added to a mixture containing silver halide before coating or, more suitably, be mixed with the silver halide just prior to or during coating. In either case, additional components like couplers, […], surfactants, hardeners and other materials that are typically present in such solutions may also be present at the same time. The materials of the invention are not water-soluble and cannot be added directly to the solution. They may be added directly if dissolved in an organic water miscible solution such as methanol, acetone or the like or more preferably as a dispersion. A dispersion incorporates the material in a stable, finely divided state in a hydrophobic organic solvent (often referred to as a coupler solvent or permanent solvent) that is stabilized by suitable surfactants and surface active agents usually in combination with a binder or matrix such as gelatin. The dispersion may contain one or more permanent solvents that dissolve the material and maintain it in a liquid state. Some examples of suitable permanent solvents are tricresylphosphate, N,N-diethyllauramide, N,N-dibutyllauramide, p-dodecylphenol, dibutylphthalate, di-n-butyl sebacate, N-n-butylacetanilide, 9-octadecen-1-ol, ortho-methylphenyl benzoate, trioctylamine and 2-ethylhexylphosphate. Permanent solvents can also be described in terms of physical constants such as alpha, beta and pi* as defined by M. J. Kamlet, J-L. M. Abboud, M. H. Abraham and R. W. Taft, J. Org Chem, 48, 2877(1983). The preferred permanent solvents used with the materials of the invention are those with ClogP of 5.0 or greater and beta values of 0.4 or greater or more preferably, beta values of 0.5 or greater. Preferred classes of solvents are carbonamides, phosphates, alcohols and esters. When a solvent is present, it is preferred that the weight ratio of compound to solvent be at least 1 to 0.5, or most preferably, at least 1 to 1. […]

| beta | SMILES |
| --- | --- |
| 0.43 | Cc1ccccc1OC(=O)c1ccccc1 [ortho-methylphenyl benzoate] |
| 0.93 | CCCCCCCCCCCC(=O)N(CCCC)CCCC [N,N-dibutyllauramide] |
| 0.71 | CCCCCCCC/C=C\CCCCCCCCO [(Z)-9-octadecen-1-ol] |
